In ChEMBL document CHEMBL3352035, “Design and synthesis of new 7-(N-substituted-methyl)-camptothecin derivatives as potent cytotoxic agents” (Bioorg Med Chem Lett, 2014):

Tests used:
[1] = cells; conditions: Homo sapiens, KBVIN, 72 h
Description: Cytotoxicity against multidrug-resistant human KBVIN cells after 72 hrs sulforhodamine B colorimetric assay

[2] = system: A549; test: Cytotoxicity against human A549 cells after 72 hrs sulforhodamine B colorimetric assay; conditions: A549, 72 h
[3] = system: MDA-MB-231; test: cells; conditions: Homo sapiens, MDA-MB-231, 72 h
Description: Cytotoxicity against human MDA-MB-231 cells after 72 hrs sulforhodamine B colorimetric assay

[4] = system: KB; test: Cytotoxicity against human KB cells after 72 hrs sulforhodamine B colorimetric assay
[5] = Ratio of topotecan IC50 to compound IC50 for multidrug-resistant human KBVIN cells after 72 hrs sulforhodamine B colorimetric assay; assay type: functional
[6] = system: A549; test: Ratio of topotecan IC50 to compound IC50 for human A549 cells after 72 hrs sulforhodamine B colorimetric assay; assay type: functional

Structure (SMILES) | IC50 [1] | IC50 [2] | IC50 [3] | IC50 [4] | Ratio IC50 [5] | Ratio IC50 [6]
CC[C@@]1(O)C(=O)OCc2c1cc1n(c2=O)Cc2c-1nc1ccccc1c2CNc1ccc(OC)cc1 | 77.3 nM | 47 nM | 84.2 nM | 75.8 nM |  | 
CC[C@@]1(O)C(=O)OCc2c1cc1n(c2=O)Cc2c-1nc1ccccc1c2CN1CCCCC1 | 20.5 nM | 21.9 nM | 69.9 nM | 49.9 nM |  | 
CC[C@@]1(O)C(=O)OCc2c1cc1n(c2=O)Cc2c-1nc1ccccc1c2CN1CCCC1 | 20.8 nM | 15.5 nM | 60.9 nM | 37.1 nM |  | 
CC[C@@]1(O)C(=O)OCc2c1cc1n(c2=O)Cc2c-1nc1ccccc1c2CN1CCN(C)CC1 | 274 nM | 62.2 nM | 110 nM | 89.5 nM |  | 
CC[C@@]1(O)C(=O)OCc2c1cc1n(c2=O)Cc2c-1nc1ccccc1c2CN(C(C)C)C(C)C | 1060 nM | 534 nM | 1110 nM | 813 nM |  | 
CCCNCc1c2c(nc3ccccc13)-c1cc3c(c(=O)n1C2)COC(=O)[C@]3(O)CC | 21.7 nM | 4.8 nM | 31.6 nM | 15 nM | 7 | 7
CC[C@@]1(O)C(=O)OCc2c1cc1n(c2=O)Cc2c-1nc1ccccc1c2CNCCO | 183 nM | 150 nM | 378 nM | 208 nM |  | 
CC[C@@]1(O)C(=O)OCc2c1cc1n(c2=O)Cc2c-1nc1ccccc1c2CNc1ccc(C)cc1 | 79.5 nM | 58.7 nM | 92.7 nM | 81.7 nM |  | 
CC[C@@]1(O)C(=O)OCc2c1cc1n(c2=O)Cc2c-1nc1ccccc1c2CNc1ccccc1OC | 14.9 nM | 2.3 nM | 26.4 nM | 4.6 nM | 7 | 7
CC[C@@]1(O)C(=O)OCc2c1cc1n(c2=O)Cc2c-1nc1ccccc1c2CNc1ccc(F)cc1 | 13.2 nM | 6.3 nM | 30 nM | 5 nM | 7 | 7
CC[C@@]1(O)C(=O)OCc2c1cc1n(c2=O)Cc2c-1nc1ccccc1c2CNc1ccc(Cl)cc1 | 12.9 nM | 39.1 nM | 64.4 nM | 39.7 nM |  | 
CC[C@@]1(O)C(=O)OCc2c1cc1n(c2=O)Cc2c-1nc1ccccc1c2CNc1ccc(Br)cc1 | 63.3 nM | 59.2 nM | 114 nM | 82.1 nM |  | 
CC[C@@]1(O)C(=O)OCc2c1cc1n(c2=O)Cc2c-1nc1ccccc1c2CNc1cccc2ccccc12 | 78 nM | 36.2 nM | 64 nM | 61.5 nM |  | 
CC[C@@]1(O)C(=O)OCc2c1cc1n(c2=O)Cc2c-1nc1ccccc1c2CNc1cccc(Cl)c1 | 68.8 nM | 50.4 nM | 96.1 nM | 71.3 nM |  | 
CC[C@@]1(O)C(=O)OCc2c1cc1n(c2=O)Cc2c-1nc1ccccc1c2CNc1ccccc1Cl | 12.8 nM | 17 nM | 57.6 nM | 37.1 nM |  | 
CC[C@@]1(O)C(=O)OCc2c1cc1n(c2=O)Cc2c-1nc1ccccc1c2CNCc1ccccc1 | 117 nM | 122 nM | 337 nM | 180 nM |  | 
CC[C@@]1(O)C(=O)OCc2c1cc1n(c2=O)Cc2c-1nc1ccccc1c2CNc1ccccn1 | 70.6 nM | 51.4 nM | 108 nM | 78.6 nM |  | 
CC[C@@]1(O)C(=O)OCc2c1cc1n(c2=O)Cc2c-1nc1ccccc1c2CNc1ccccc1 | 47.9 nM | 53.2 nM | 78.1 nM | 78.3 nM |  | 
CC[C@@]1(O)C(=O)OCc2c1cc1n(c2=O)Cc2c-1nc1ccccc1c2CNC1CCCCC1 | 16.5 nM | 18.8 nM | 53.2 nM | 36.2 nM |  | 
CC(=O)O[C@H]1C(=O)[C@@]2(C)[C@H]([C@H](OC(=O)c3ccccc3)[C@]3(O)C[C@H](OC(=O)[C@H](O)[C@@H](NC(=O)c4ccccc4)c4ccccc4)C(C)=C1C3(C)C)[C@]1(OC(C)=O)CO[C@@H]1C[C@@H]2O [PACLITAXEL] | 1440 nM | 5.7 nM | 6.6 nM | 3.9 nM |  | 
